Data taken from a compilation of properties of binary mixtures (doi:10.1016/j.molliq.2020.113127).

Test: xn = mol fraction of the nth substance listed
Settings: 101 kPa

SMILES	viscosity (298.15 K, x1 = 0.333) [mPa·s]	viscosity (303.15 K, x1 = 0.333) [mPa·s]	viscosity (308.15 K, x1 = 0.333) [mPa·s]	viscosity (313.15 K, x1 = 0.333) [mPa·s]	viscosity (318.15 K, x1 = 0.333) [mPa·s]	viscosity (323.15 K, x1 = 0.333) [mPa·s]	viscosity (313.15 K, x1 = 0.25) [mPa·s]	viscosity (318.15 K, x1 = 0.25) [mPa·s]	viscosity (328.15 K, x1 = 0.25) [mPa·s]	viscosity (333.15 K, x1 = 0.25) [mPa·s]
CC[N+](CC)(CC)CC.[Cl-] + CC(=O)O	34.46	27.81	22.91	19.51	16.53	13.93	–	–	–	–
C[P+](c1ccccc1)(c1ccccc1)c1ccccc1.[Br-] + OCCO	–	–	–	–	–	–	53.81	40.74	25.16	20.33
